Reference: ChEMBL document CHEMBL6114976, “Structure-based design, synthesis and biological evaluation of a novel d-amino acid-containing peptide inhibitor by blocking the RAD51-BRCA2 interaction for the treatment of kidney cancer” (Eur J Med Chem, 2025)
One block for each compound: values may come before it. Active and inactive are the calls of the source. The calls are words filed in the database; no cut-off is given here. Residues, ends and D or L forms follow the SMILES beside them.

What was measured:
786-0 [1] = assay: Inhibition of cell proliferation of human 786-0 cells at 3 uM incubated for 72 hrs by MTT assay relative to control; format: functional
ACHN = assay: Inhibition of cell proliferation of human ACHN cells incubated for 72 hrs by MTT assay; format: functional, cell-based
786-0 [2] = assay: Antitumor activity against human 786-0 cells xenografted in BALB/c nude mouse assessed as reduction in tumor volume at 10 to 20 mg/kg, iv measured for 21 days; format: functional, organism-based; conditions: dose 10-20 mg/kg, time 21.0 day
786-0 [3] = assay: Induction of DNA damage in human 786-0 cells assessed as increase in gamma-H2AX mRNA level incubated for 48 hrs by qPCR analysis; format: functional, cell-based; conditions: dose 100-300 nM
[4] = Toxicity in BALB/c nude mouse xenografted with human 786-0 cells assessed as change in AST level at 10 to 20 mg/kg, iv measured for 21 days; format: organism-based; conditions: in vivo, 504 h, dose 10-20 mg/kg, time 21 day
[5] = Toxicity in BALB/c nude mouse xenografted with human 786-0 cells assessed as change in ALT level at 10 to 20 mg/kg, iv measured for 21 days; format: organism-based; conditions: in vivo, 504 h, dose 10-20 mg/kg, time 21 day
[6] = Toxicity in BALB/c nude mouse xenografted with human 786-0 cells assessed as change in BUN level at 10 to 20 mg/kg, iv measured for 21 days; format: organism-based; conditions: in vivo, 504 h, dose 10-20 mg/kg, time 21 day
[7] = Inhibition of cell proliferation of human MCF-10A cells incubated for 72 hrs by MTT assay; format: toxicity, cell-based
[8] = Inhibition of cell proliferation of human SNU-349 cells incubated for 72 hrs by MTT assay; format: functional, cell-based; conditions: SNU-349, 72 h
[9] = biological target: T1, DNA repair protein RAD51 homolog 1 (Homo sapiens, UniProt Q06609); assay: Binding affinity to RAD51 (unknown origin) assessed as dissociation constant by MST assay
T1 sequence (Q06609 whole entry): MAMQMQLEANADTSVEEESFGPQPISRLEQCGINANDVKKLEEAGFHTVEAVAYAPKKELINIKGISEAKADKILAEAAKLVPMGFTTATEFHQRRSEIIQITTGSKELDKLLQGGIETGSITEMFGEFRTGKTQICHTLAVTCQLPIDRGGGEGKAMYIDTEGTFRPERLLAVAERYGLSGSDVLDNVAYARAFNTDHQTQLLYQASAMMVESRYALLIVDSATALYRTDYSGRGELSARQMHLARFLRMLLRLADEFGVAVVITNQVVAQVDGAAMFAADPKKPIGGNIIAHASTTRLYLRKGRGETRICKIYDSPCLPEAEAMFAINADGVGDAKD

[10] = Cmax in BALB/c mouse at 10 mg/kg, iv measured for 0.25 to 24 hrs by LC-MS/MS analysis; format: ADME, organism-based; conditions: in vivo, time 0.25-24 hrs
786-0 [11] = assay: cells; conditions: Homo sapiens, 786-0, 72 h
Description: Inhibition of cell proliferation of human 786-0 cells incubated for 72 hrs by MTT assay

[12] = Tmax in BALB/c mouse at 10 mg/kg, iv measured for 0.25 to 24 hrs by LC-MS/MS analysis; format: ADME, organism-based; conditions: in vivo, time 0.25-24 hrs
786-0 [13] = assay: Antitumor activity against human 786-0 cells xenografted in BALB/c nude mouse assessed as reduction in tumor weight at 10 to 20 mg/kg, iv measured for 21 days; format: functional, organism-based; conditions: dose 10-20 mg/kg, time 21.0 day
[14] = Toxicity in BALB/c nude mouse xenografted with human 786-0 cells assessed as change in CREA level at 10 to 20 mg/kg, iv measured for 21 days; format: organism-based; conditions: in vivo, 504 h, dose 10-20 mg/kg, time 21 day
[15] = Inhibition of cell proliferation of human Hkb20 cells incubated for 72 hrs by MTT assay; format: toxicity, cell-based
[16] = Inhibition of cell proliferation of human HK-2 cells incubated for 72 hrs by MTT assay; format: toxicity, cell-based
[17] = AUC in BALB/c mouse at 10 mg/kg, iv measured for 0.25 to 24 hrs by LC-MS/MS analysis; format: ADME, organism-based; conditions: in vivo, time 0.25-24 hrs
[18] = biological target: T1, DNA repair protein RAD51 homolog 1; assay: Inhibition of RAD51 (unknown origin) in presence of AlexaFluor 488-labeled BRC4 by fluorescence polarization competitive binding assay
CAKI-1 = assay: Inhibition of cell proliferation of human CAKI-1 cells incubated for 72 hrs by MTT assay; format: functional, cell-based; conditions: CAKI-1, 72 h
[19] = Stability in mouse serum assessed as compound remaining at 5 uM measured after 360 mins by HPLC analysis; format: ADME, cell-free; conditions: read-out: Stability
[20] = Half life in BALB/c mouse at 10 mg/kg, iv measured for 0.25 to 24 hrs by LC-MS/MS analysis; format: ADME, organism-based; conditions: in vivo, time 0.25-24 hrs
786-0 [21] = assay: Inhibition of HR repair in human 786-0 cells transfected with plasmids upto 640 nM incubated for 5 hrs by real-time PCR assay; format: functional, cell-based
A498 = assay: Inhibition of cell proliferation of human A498 cells incubated for 72 hrs by MTT assay; format: functional, cell-based; conditions: A498, 72 h
[22] = Inhibition of cell proliferation of human GP2-293 cells incubated for 72 hrs by MTT assay; format: toxicity, cell-based
[23] = Toxicity in BALB/c nude mouse xenografted with human 786-0 cells assessed as body weight change at 10 to 20 mg/kg, iv measured for 21 days; format: organism-based; conditions: in vivo, 504 h, dose 10-20 mg/kg, time 21 day
786-0 [24] = assay: Antitumor activity against human 786-0 cells xenografted in BALB/c nude mouse assessed as tumor growth inhibition administered intravenously measured for 21 days; format: functional, cell-based; conditions: dose 10-20 mg/kg, route iv, time 21.0 day
[25] = Stability in mouse serum assessed as compound remaining at 5 uM measured after 180 mins by HPLC analysis; format: ADME, cell-free; conditions: 3 h

IC50 (ACHN): 310 nM
Kd [9]: 9.24 nM
Cmax [10]: 6470 ng/mL
IC50 (786-0 [11]): 90 nM
Tmax [12]: 0.29 h
AUC [17]: 13000 ng·h/mL
IC50 [18]: 35 nM
remaining at 6 h, 5 µM [19]: 85%
half-life [20]: 7.38 h
Structure (SMILES): CC[C@](C)(NC(=O)[C@@H](NC(=O)[C@H](CC(C)C)NC(=O)[C@H](Cc1c[nH]c2ccccc12)NC(=O)[C@@H](CO)NC(C)=O)[C@@H](C)O)C(N)=O
inhibition at 3 µM (786-0 [1]): > 90%
Activity (786-0 [2]): Active
Activity (786-0 [3]): Dose-dependent-effect
Activity [4]: Non-toxic
Activity [5]: Non-toxic
Activity [6]: Non-toxic
IC50 at 72 h [7]: > 10000 nM
IC50 [8]: 250 nM
Activity (786-0 [13]): Active
Activity [14]: Non-toxic
IC50 at 72 h [15]: > 10000 nM
IC50 at 72 h [16]: > 10000 nM
IC50 (CAKI-1): 510 nM
inhibition (786-0 [21]): Dose-dependent-effect
IC50 (A498): 680 nM
IC50 at 72 h [22]: > 10000 nM
Activity [23]: Non-toxic
Activity (786-0 [24]): Dose-dependent-effect

Kd [9]: 56.7 nM
Structure (SMILES): CC[C@](C)(NC(=O)[C@@H](NC(=O)[C@H](CC(C)C)NC(=O)[C@H](Cc1c[nH]c2ccccc12)NC(=O)[C@@H](CO)NC(C)=O)C(C)C)C(N)=O
inhibition at 3 µM (786-0 [1]): > 60%

Stability [25]: Unstable
Kd [9]: 602 nM
IC50 (786-0 [11]): > 10000 nM
Structure (SMILES): CC[C@H](C)[C@H](NC(=O)[C@H](CCCCN)NC(=O)[C@@H](NC(=O)[C@H](CCCCN)NC(=O)[C@H](CCCCN)NC(=O)CNC(=O)[C@H](CO)NC(=O)[C@H](C)NC(=O)[C@@H](NC(=O)[C@H](Cc1c[nH]cn1)NC(=O)[C@H](Cc1ccccc1)NC(=O)CNC(=O)[C@H](CC(C)C)NC(=O)[C@H](CC(C)C)NC(C)=O)[C@@H](C)O)C(C)C)C(=O)N[C@@H](C)C(=O)N[C@@H](CCCCN)C(N)=O (Ac-LLGFHTASGKKVKIAK-NH2)

Kd [9]: 128 nM
Structure (SMILES): CC[C@](C)(NC(=O)[C@@H](NC(=O)[C@H](CC(C)C)NC(=O)[C@H](Cc1ccccc1)NC(=O)[C@@H](CO)NC(C)=O)[C@@H](C)O)C(N)=O
inhibition at 3 µM (786-0 [1]): > 60%

Kd [9]: 236 nM
Structure (SMILES): CC[C@](C)(NC(=O)[C@@H](NC(=O)[C@H](CC(C)C)NC(=O)[C@H](Cc1c[nH]c2ccccc12)NC(=O)[C@H](CO)NC(C)=O)[C@@H](C)O)C(N)=O
inhibition at 3 µM (786-0 [1]): > 60%

Kd [9]: 145 nM
Structure (SMILES): CC(=O)N[C@H](CO)C(=O)N[C@@H](Cc1ccccc1)C(=O)N[C@@H](CC(C)C)C(=O)N[C@H](C(=O)N[C@@H](C)C(N)=O)C(C)C
inhibition at 3 µM (786-0 [1]): > 60%

Kd [9]: 40.1 nM
Structure (SMILES): CC[C@](C)(NC(=O)[C@@H](NC(=O)[C@H](C)NC(=O)[C@H](Cc1c[nH]c2ccccc12)NC(=O)[C@@H](CO)NC(C)=O)[C@@H](C)O)C(N)=O
inhibition at 3 µM (786-0 [1]): > 60%
